From patent publication US20250235545A1, “POLYPEPTIDE CONJUGATE AND USE THEREOF” (SHANGHAI CHIXI BIOMEDICAL TECHNOLOGY CO., LTD, priority 2024, published 2025) come the findings set out here.

A word on the IC50: it is the concentration needed to halve the response being measured.

For data set [1], the system named is colo320 colorectal cancer tumor model. Here is the method:
Test objective: To investigate the antitumor efficacy of the above compounds in an animal tumor model of colo320 colorectal cancer.
(§1) Test drug: Polypeptide conjugate, Irinotecan, Belotecan and normal saline control group.
(§2) Test animals: 6-8 weeks old BALB/c mice, all female.
(§3) Passaging was performed every three days, and cells within 15 generations were used. 7.5×10^6 corresponding cells were injected into right chests of nude mice subcutaneously. After a volume of the tumors reached at least 120 mm^3, the mice were grouped randomly, with three mice in each group. Then treatment was started, and the day when the treatment was started was the first day. […] The control group was administered with normal saline. Administration was performed once a week for four weeks.

For data set [2], the system named is colo320 (colorectal cancer tissue). The data set is described as follows: cells. It is filed as cell-based. To be noted: CCK8, 48 h, Table 6. Here is the method:
(§4) Different types of cells were cultured with complete media (RPMI1640 (DMEM high sugar medium)+10% fetal bovine serum+1×P/S+sodium pyruvate 1 mM solution) in an incubator at 37° C. and 5% CO2 until the cells grew to a sufficient number, and the cells were collected, centrifuged at 1,000 g for 5 min, resuspended with an appropriate volume of a 10% RMPI1640 (DMEM high sugar medium) medium and adjusted to an appropriate density. In a 96-well culture plate, 100 μL of cell culture fluid containing different concentrations of drugs was added, control wells (0.1% DMSO) with only corresponding drug solvents without drugs, as well as blank wells (Blank) with only the medium but without cells were set, and three parallel wells were set in each group. After that, the cells after cell counting were inoculated onto 96-well culture plates, with 100 μL of cell suspension per well, and an inoculation concentration of the cells was 5,000 cells (100 μL)/well. The plates were then cultured in a CO2 (5%) incubator at 37° C. for 48 h. After 48 h, 10 μL of a cell proliferation staining reagent (CCK8) was added to each well, the plates were incubated in a cell incubator for around 2 h, and an absorbance at 450 nm was detected.
(§5) Cell survival rates and median inhibitory concentrations (IC50) of the drugs on the cells were calculated.

Data set [3] is described as follows: MTD determination in mice (Examples 27, 36, 44). Type of data set: in vivo. An excerpt:
Test animals: 6-8 weeks old mice, all female; mice were grouped randomly, with six mice in each group, administered with drugs at different concentration gradients separately and monitored for 14 d. A mouse was euthanized at a loss of 20% of its initial weight and deemed to have died of poisoning.

The subject of data set [4] is sarcoma SJSA-1 tumor model. The procedure:
Test objective: To investigate the antitumor efficacy of the above compounds in an animal tumor model of sarcoma SJSA-1.
as §1, §2
as §3, with “SJSA-1 cells were purchased from ATCC and cultured in a DMEM medium containing 10% fetal bovine serum at 37° C. in 5% CO2. Passaging” for “Passaging”, “2×10^7” for “7.5×10^6”, “100” for “120”, “three” for “four”
as §3, with “SJSA-1 cells were purchased from ATCC and cultured in a DMEM medium containing 10% fetal bovine serum at 37° C. in 5% CO2. Passaging” for “Passaging”, “2×10^7” for “7.5×10^6”, “100” for “120”, “three” for “four”

Another data set concerns SJSA-1 (sarcoma tissue). Put plainly: cells. It is filed as cell-based. The conditions noted are these: CCK8, 48 h; for IC50: Homo sapiens, SJSA-1. The procedure: as §4, with “serum+1XP/S+sodium” for “serum+1×P/S+sodium”, “counted.” for “adjusted to an appropriate density.”
(§6) Cell survival rates and median inhibitory concentrations of the drugs on the cells were calculated.
as §4, §5

Data set [5] has as its system SKBR3 (breast cancer tissue). The data set is described as follows: cells. To be noted: CCK8, 48 h; for IC50: Homo sapiens, SK-BR-3. Type of data set: cell-based. Here is the method:
as §4, with “serum+1XP/S+sodium” for “serum+1×P/S+sodium”, “counted.” for “adjusted to an appropriate density.”
as §6, §4, §5

The subject of data set [6] is A549 (non-small cell lung cancer). Put plainly: cells. It is filed as cell-based. The conditions noted are these: CCK8, 48 h; for IC50: Homo sapiens, A549. Here is the method:
as §4, with “serum+1XP/S+sodium” for “serum+1×P/S+sodium”, “counted.” for “adjusted to an appropriate density.”
as §6, §4, §5

For a further data set, the system named is A2780 (ovarian cancer). Put plainly: cells. It is filed as cell-based. To be noted: CCK8, 48 h; for IC50: Homo sapiens, A2780. The procedure: as §4, with “serum+1XP/S+sodium” for “serum+1×P/S+sodium”, “counted.” for “adjusted to an appropriate density.”
as §6, §4, §5

[7] abbreviates: 5 mg/kg once a week for four weeks, Table 3.
Setting [8] is: 5 mg/kg once a week for four weeks, Table 8.
Setting [9] is: mice, monitored for 14 d, Table 4.
The mark [10] stands for this setting: mice, monitored for 14 d, Table 9.
Setting [11] is: 5 mg/kg once a week for three weeks, Table 2.
The mark [12] stands for this setting: 5 mg/kg once a week for three weeks, Table 7.
Setting [13] is: 15 mg/kg once a week for four weeks, Table 3.
Where [14] appears, read: 15 mg/kg once a week for four weeks, Table 8.
Setting [15] is: Table 13 (Example 42), dose 15 mg/kg, once a week for four weeks, BALB/c mice.
[16] abbreviates: Table 14 (Example 43), dose 15 mg/kg, once a week for four weeks, BALB/c mice.
Setting [17] is: 15 mg/kg once a week for three weeks, Table 2.
The mark [18] stands for this setting: 15 mg/kg once a week for three weeks, Table 7.

Structures are written as SMILES. ≈ marks a conversion by molar mass, not a printed value. Like-named read-outs stand apart in the source and are kept apart here.

Regarding `CC[C@@]1(O)C(=O)OCc2c1cc1n(c2=O)Cc2c-1nc1ccccc1c2CCNC1CCC1` [D7], in data set [1] (setting [7]), the “Mouse weight (%)” value is recorded as −8%, the “colo320 (colorectal cancer cell) growth rate (%)” value (from here on “colo320 … (%)”) amounted to 1136.64% and the “colo320 (colorectal cancer cell) mean tumor volume (mm^3)” value (“colo320 … (mm^3)” below) was 1258.9 mm^3. Further, in data set [1] (setting [8]), the “Mouse weight (%)” value was −8%, the “colo320 … (%)” value came out at 1136.64% and the “colo320 … (mm^3)” value is 1258.9 mm^3. The “IC50 Colorectal cancer tissue (colo320)” value in data set [2] stood at 0.017 µg/mL (≈ 0.0382 µM). The molecule also yielded an MTD in data set [3] (setting [9]) of 15 mg/kg. The molecule further gave an MTD in data set [3] (setting [10]) of 15 mg/kg. In data set [4] (setting [11]), the “Mouse weight (%)” value is −7%, the “SJSA-1 (sarcoma tissue) mean tumor volume (mm^3)” value came to 1369.5 mm^3 and the “SJSA-1 (sarcoma) Growth rate (%)” value is 1185.01%. In addition, in data set [4] (setting [12]), the “Mouse weight (%)” value is recorded as −7%, the “SJSA-1 (sarcoma tissue) growth rate (%)” value is reported as 1185.01% and the “SJSA-1 (sarcoma tissue) mean tumor volume (mm^3)” value is recorded as 1369.5 mm^3. Further, the “IC50 SJSA-1 (sarcoma tissue)” value in the data set with SJSA-1 (sarcoma tissue) (Table 1) came out at 0.0084 µg/mL (≈ 0.0189 µM). Moreover, the “IC50 Sarcoma tissue (SJSA-1)” value in the data set on SJSA-1 (sarcoma tissue) (Table 6) amounted to 0.0084 µg/mL (≈ 0.0189 µM). For the same molecule, the “IC50 SKBR3 (breast cancer tissue)” value in data set [5] (Table 1) was determined as 0.016 µg/mL (≈ 0.0359 µM). The “IC50 Breast cancer tissue (SKBR3)” value in data set [5] (Table 6) was 0.016 µg/mL (≈ 0.0359 µM). For the same molecule, the “IC50 A549 (non-small cell lung cancer)” value in data set [6] (Table 1) is 0.0074 µg/mL (≈ 0.0166 µM). Besides, the “IC50 Non-small cell lung cancer tissue (A549)” value in data set [6] (Table 6) turned out to be 0.0074 µg/mL (≈ 0.0166 µM). For the same molecule, in the data set with A2780 (ovarian cancer) (Table 1), the “IC50 A2780 (ovarian cancer)” value was found to be 0.0043 µg/mL (≈ 0.00965 µM). The “IC50 Ovarian cancer tissue (A2780)” value in the data set on A2780 (ovarian cancer) (Table 6) is 0.0043 µg/mL (≈ 0.00965 µM).

As to `CC[C@@]1(O)C(=O)OCc2c1cc1n(c2=O)Cc2c-1nc1ccccc1c2CCNC1CCCC1` [D8], in data set [1] (setting [7]), the “Mouse weight (%)” value is on record as −6%, the “colo320 … (%)” value came to 1082.65% and the “colo320 … (mm^3)” value was 1199.1 mm^3. In data set [1] (setting [8]), the “Mouse weight (%)” value is on record as −6%, the “colo320 … (%)” value was 1082.65% and the “colo320 … (mm^3)” value is recorded as 1199.1 mm^3. The “IC50 Colorectal cancer tissue (colo320)” value in data set [2] turned out to be 0.042 µg/mL (≈ 0.0914 µM). In addition, in data set [3] (setting [9]), the MTD turned out to be 25 mg/kg. The molecule also returned an MTD in data set [3] (setting [10]) of 25 mg/kg. Also, in data set [4] (setting [11]), the “Mouse weight (%)” value is recorded as “+12%”, the “SJSA-1 (sarcoma tissue) mean tumor volume (mm^3)” value worked out at 1497.5 mm^3 and the “SJSA-1 (sarcoma) Growth rate (%)” value was 1295.77%. Besides, in data set [4] (setting [12]), the “Mouse weight (%)” value is “+12%”, the “SJSA-1 (sarcoma tissue) growth rate (%)” value was found to be 1295.77% and the “SJSA-1 (sarcoma tissue) mean tumor volume (mm^3)” value was 1497.5 mm^3. For the same molecule, the “IC50 SJSA-1 (sarcoma tissue)” value with SJSA-1 (sarcoma tissue) (Table 1) came out at 0.035 µg/mL (≈ 0.0762 µM). Besides, in the data set on SJSA-1 (sarcoma tissue) (Table 6), the “IC50 Sarcoma tissue (SJSA-1)” value is 0.035 µg/mL (≈ 0.0762 µM). Moreover, in data set [5] (Table 1), the “IC50 SKBR3 (breast cancer tissue)” value was determined as 0.047 µg/mL (≈ 0.102 µM). For the same molecule, the “IC50 Breast cancer tissue (SKBR3)” value in data set [5] (Table 6) worked out at 0.047 µg/mL (≈ 0.102 µM). The “IC50 A549 (non-small cell lung cancer)” value in data set [6] (Table 1) turned out to be 0.016 µg/mL (≈ 0.0348 µM). Besides, the “IC50 Non-small cell lung cancer tissue (A549)” value in data set [6] (Table 6) was determined as 0.016 µg/mL (≈ 0.0348 µM). Moreover, the “IC50 A2780 (ovarian cancer)” value with A2780 (ovarian cancer) (Table 1) is 0.015 µg/mL (≈ 0.0326 µM). Also, the “IC50 Ovarian cancer tissue (A2780)” value in the data set on A2780 (ovarian cancer) (Table 6) is 0.015 µg/mL (≈ 0.0326 µM).

As for `CCc1c2c(nc3ccc(OC(=O)N4CCC(N5CCCCC5)CC4)cc13)-c1cc3c(c(=O)n1C2)COC(=O)[C@]3(O)CC` [Irinotecan, reference compound], the “Mouse weight (%)” value in data set [1] (setting [13]) is “+35%”; in data set [1] (setting [14]), “+35%”; in data set [1] (setting [15]) it was “+35%”; in data set [1] (setting [16]), “+35%”; in data set [4] (setting [17]), “+17%”; in data set [4] (setting [18]), “+17%”. The “colo320 … (%)” value in data set [1] (setting [13]), in data set [1] (setting [14]), in data set [1] (setting [15]) and in data set [1] (setting [16]) was 815.39% in each case. In addition, the IC50 in data set [2] (Homo sapiens, COLO 320) was 0.11 µg/mL (≈ 0.187 µM); in the data set on SJSA-1 (sarcoma tissue) (Table 1, read-out: IC50 SJSA-1 (sarcoma tissue)) it was 0.11 µg/mL (≈ 0.187 µM); in the data set with SJSA-1 (sarcoma tissue) (Table 6, read-out: IC50 Sarcoma tissue (SJSA-1)), 0.11 µg/mL (≈ 0.187 µM); in data set [5] (Table 1, read-out: IC50 SKBR3 (breast cancer tissue)), 0.25 µg/mL (≈ 0.426 µM); in data set [5] (Table 6, read-out: IC50 Breast cancer tissue (SKBR3)) it was 0.25 µg/mL (≈ 0.426 µM); in data set [6] (Table 1, read-out: IC50 A549 (non-small cell lung cancer)), 0.11 µg/mL (≈ 0.187 µM). In addition, the IC50 in data set [6] (Table 6, read-out: IC50 Non-small cell lung cancer tissue (A549)) came out at 0.11 µg/mL (≈ 0.187 µM); in the data set on A2780 (ovarian cancer) (Table 1, read-out: IC50 A2780 (ovarian cancer)), 0.16 µg/mL (≈ 0.273 µM); in the data set on A2780 (ovarian cancer) (Table 6, read-out: IC50 Ovarian cancer tissue (A2780)), 0.16 µg/mL (≈ 0.273 µM). In addition, the MTD in data set [3] (female, mouse, in vivo, 'around', read-out: MTD (as stated in dosage instructions)) is roughly 70 mg/kg; in data set [3] (female, mouse, in vivo, Table 15 (Example 44), mice, six per group, monitored for 14 d, read-out: MTD) it was 75 mg/kg; in data set [3] (female, mouse, in vivo, mice, monitored for 14 d, Table 4, read-out: MTD) it was 75 mg/kg; in data set [3] (female, mouse, in vivo, mice, monitored for 14 d, Table 9, read-out: MTD) it was 75 mg/kg. In addition, the “SJSA-1 (sarcoma) Growth rate (%)” value in data set [4] (setting [17]) came to 798.05%. Also, the “SJSA-1 (sarcoma tissue) growth rate (%)” value in data set [4] (setting [18]) is given as 798.05%.
